# Measured values: patent US20210094922A1, “Dyes for Analysis of Soluble Protein Aggregates or Misfolded Protein Oligomers” (The Penn State Research Foundation, priority 2018, published 2021)
# What was measured:
# SOD1-A4V-Halo [1] = molecular target: T1, SOD1-A4V-Halo (Homo sapiens, UniProt P00441, A5V); test: Two-color imaging of SOD1-A4V-Halo in HEK293T cells under MG132; format: cell-based; set-up: expressed in transfected cells; host or cells: HEK293T; conditions: 4 and 5 both at 0.5 μM, 5 μM MG132 for 8 h
# Excerpt: (§1) (B-C) Excitation and emission spectra of 4 (with misfolded oligomers of SOD1-A4V-Halo) and 5 (with insoluble aggregates of SOD1-A4V-Halo).
# (§2) Combination of 4 and 5 enables a two-color imaging strategy to differentiate insoluble aggregates from soluble oligomers. The inventors carried out live cell imaging experiments, wherein 4 or 5 was used to visualize aggregation of POI-Halo fusion proteins in HEK293T cells. […] To this end, the inventors labeled HEK293T cells expressing SOD1-A4V-Halo simultaneously with 4 and 5 (both at 0.5 μM) for 24 h and treated cells with 5 μM MG132 for 8 h. […] The inventors further carried out experiments using Htt-PolyQ with 110 glutamine repeats (Htt-110Q-Halo).
# Target sequence in this assay (P00441 with tags, fused parts or gaps A5V limits assumed): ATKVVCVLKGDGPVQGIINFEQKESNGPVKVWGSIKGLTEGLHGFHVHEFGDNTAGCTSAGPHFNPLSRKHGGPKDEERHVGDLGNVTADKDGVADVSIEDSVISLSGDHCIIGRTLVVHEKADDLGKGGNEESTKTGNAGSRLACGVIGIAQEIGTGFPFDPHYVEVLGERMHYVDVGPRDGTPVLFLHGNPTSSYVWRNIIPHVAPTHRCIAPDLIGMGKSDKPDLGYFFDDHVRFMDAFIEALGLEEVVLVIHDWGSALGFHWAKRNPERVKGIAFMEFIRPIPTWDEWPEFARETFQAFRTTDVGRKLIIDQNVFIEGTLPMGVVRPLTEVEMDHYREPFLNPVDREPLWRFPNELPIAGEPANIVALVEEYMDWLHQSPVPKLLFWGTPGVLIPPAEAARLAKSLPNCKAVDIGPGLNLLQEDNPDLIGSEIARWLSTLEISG
# Htt-110Q-Halo = molecular target: T2, Htt-110Q-Halo (Homo sapiens, UniProt P42858); test: Two-color imaging of Htt-110Q-Halo in HEK293T cells; format: cell-based
# T2 construct: using the Huntingtin exon 1 protein (Htt) with expansion of a polyglutamine tract within its N-terminal domain; expressed in transfected cells; host or cells: HEK293T
# T2 sequence (P42858 with tags, fused parts or gaps): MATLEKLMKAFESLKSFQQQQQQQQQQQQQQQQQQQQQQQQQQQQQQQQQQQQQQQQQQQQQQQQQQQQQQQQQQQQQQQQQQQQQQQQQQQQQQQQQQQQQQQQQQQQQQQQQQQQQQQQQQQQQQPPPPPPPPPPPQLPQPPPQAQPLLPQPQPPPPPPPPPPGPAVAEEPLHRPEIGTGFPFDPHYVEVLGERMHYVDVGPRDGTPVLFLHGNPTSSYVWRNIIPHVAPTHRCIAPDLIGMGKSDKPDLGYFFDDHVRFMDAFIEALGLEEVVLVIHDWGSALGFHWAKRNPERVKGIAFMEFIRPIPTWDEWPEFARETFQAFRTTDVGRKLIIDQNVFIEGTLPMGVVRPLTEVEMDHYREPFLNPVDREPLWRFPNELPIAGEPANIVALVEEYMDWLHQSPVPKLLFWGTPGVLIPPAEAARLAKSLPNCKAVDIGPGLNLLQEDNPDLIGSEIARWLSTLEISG
# Excerpt: as §1, §2
# [2] = Photophysical parameters of fluorophores in glycerol; format: physicochemical
# Description: FP analogues (20 μM) were prepared in glycerol:H2O mixture with increasing glycerol concentrations. In addition, fluorescence intensity in 1,4-dioxane was measured to evaluate their response to polarity. Fluorescence measurement was carried out using a Tecan infinite M1000Pro fluorescence microplate reader at excitation and emission wavelengths as indicated. All readings were normalized against the fluorescence intensity in 100% glycerol as 1. Error bars: standard error (n=3).
# FP analogues (20 μM) were prepared in glycerol. Spectra were collected with emission wavelength of 420 nm for 1, 525 nm for 2, 620 nm for 3, 3a and 3b. All measurements were carried out using a Tecan infinite M1000Pro fluorescence microplate reader.
# FP analogues (20 μM) were prepared in glycerol. Spectra were collected with excitation wavelength of 370 nm for 1, 455 nm for 2, 530 nm for 3 and 3b, 485 nm for 3a. All measurements were carried out using a Tecan infinite M1000Pro fluorescence microplate reader.
# FP analogues (10 μM) were prepared in glycerol. Spectra were collected with 10 mm quartz cuvette. All measurements were carried out using Agilent 300 UV-Vis spectrophotometer.
# However, the quantum yield (QY, Φ=0.001 for 1 and Φ=0.027 for 2 in glycerol, Table 2) was much lower than that of a GFP (Φ=0.79).
# SOD1-A4V-Halo [3] = molecular target: T1, SOD1-A4V-Halo; test: In vitro heat-induced aggregation of SOD1-A4V-Halo conjugates; format: biochemical
# Excerpt: as §1
# Target sequence in this assay (P00441 with tags, fused parts or gaps A5V): as the sequence (P00441 with tags, fused parts or gaps A5V limits assumed) above
# The inventors installed Halo-tag reactive warhead to 2, resulting in 5.
# SOD1(V31A)-Halo [4] = molecular target: SOD1(V31A)-Halo (Rhodococcus rhodochrous, UniProt P0A3G2, A155T/A167V/A172T/A224E/C128F/C176G/D78G/E160K/E257K/H272N/K175M/K195N/L47V/L88M/N227D/P291S/S58T/T264A/Y273L/Y87F); test: In vitro heat-induced aggregation of purified SOD1(V31A)-Halo-4 conjugate; format: biochemical; set-up: made in house; host or cells: E. coli BL21 DE3* (pET29b; pBAD σ32-I54N co-expressed)
# Sequence of SOD1(V31A)-Halo (Rhodococcus rhodochrous, UniProt P0A3G2, A155T/A167V/A172T/A224E/C128F/C176G/D78G/E160K/E257K/H272N/K175M/K195N/L47V/L88M/N227D/P291S/S58T/T264A/Y273L/Y87F) (P0A3G2 other isoform, or with tags, fused parts or gaps with the stated changes): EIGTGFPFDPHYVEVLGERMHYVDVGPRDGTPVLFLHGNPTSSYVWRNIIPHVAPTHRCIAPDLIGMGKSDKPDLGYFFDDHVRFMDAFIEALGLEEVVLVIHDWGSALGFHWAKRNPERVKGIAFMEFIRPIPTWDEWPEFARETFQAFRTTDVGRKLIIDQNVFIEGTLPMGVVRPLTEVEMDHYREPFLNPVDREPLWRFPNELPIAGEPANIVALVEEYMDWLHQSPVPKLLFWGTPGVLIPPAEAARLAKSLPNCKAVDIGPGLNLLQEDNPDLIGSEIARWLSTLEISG
# Description: (§3) (a) Purified SOD1(V31A)-Halo and Halo-Tag proteins (42 μM), both of which were conjugated with 4 (21 μM), were incubated at varying temperatures (25, 37, 38.9, 41.8, 45.6, 50.7, 54.5, 57.2, and 59° C.). As control samples, 4 (21 μM) was prepared in buffer, 1,4-dioxane, glycerol, BSA (2 mg/mL). Fluorescence intensity was recorded at Ex=530 nm/Em=600 nm. All readings were normalized to intensity of the Halo-Tag-4 conjugate at 25° C. Fluorescence of protein samples was also visualized via UV transilluminator. In addition, protein samples were centrifuged at 21,000 g for 30 min at 4° C. to analyze their insoluble fraction using fluorescence of 4 as signal on SDS-PAGE gel. […] This fluorescence was not originated from aggregation of Halo-Tag domain, as evidenced by the low fluorescence of the Halo-4 conjugate and lack of significant insoluble fraction at these temperatures. Error bars: standard error (n=3). (b) Purified SOD1(V31A)-Halo and Halo-Tag proteins ([…]) were conjugated with 4 (21 μM) and incubated at 54.5° C. Fluorescence was recorded using Agilent Carey Eclipse fluorescence spectrophotometer with temperature control. Buffer condition: 50 mM Tris-HCl, pH 7.5, 100 mM NaCl, 83 mM EDTA. Parameters for fluorescence measurement: 4 (Ea=530 nm/Em=600 nm).
# (§4) (a) Purified SOD1(V31A)-Halo (42 μM) was conjugated with 4 (21 μM) and incubated at 54.5° C. Fluorescence was recorded using Agilent Carey Eclipse fluorescence spectrophotometer with temperature control. Turbidity was recorded using Agilent 300 UV-Vis spectrophotometer. Buffer condition: 50 mM Tris-HCl, pH 7.5, 100 mM NaCl, 83 mM EDTA. (b) Kinetics of fluorescence increases from the SOD1(V31A)-Halo-4 conjugate (red curve) was compared to the kinetics of protein misfolding (black curve) as measured by Tryptophan fluorescence change. Fluorescence was recorded using Agilent Carey Eclipse fluorescence spectrophotometer with temperature control. Experiments were carried out at 54.5° C. Parameters for fluorescence measurement: 4 (Ex=530 nm/Em=600 nm) and Trp (Ex=290 nm/Em=330 and 345 nm). Error bars: standard error (n=3).
# SOD1(V31A)-Halo [5] = molecular target: SOD1(V31A)-Halo (UniProt P00441+P0A3G2, A155T/A167V/A172T/A224E/C128F/C176G/D78G/E160K/E257K/H272N/K175M/K195N/L47V/L88M/N227D/S58T/T264A/V32A/Y273L/Y87F); test: as above; format: biochemical; set-up: made in house; host or cells: E. coli BL21 DE3* (pET29b; pBAD σ32-I54N co-expressed)
# Sequence of SOD1(V31A)-Halo (UniProt P00441+P0A3G2, A155T/A167V/A172T/A224E/C128F/C176G/D78G/E160K/E257K/H272N/K175M/K195N/L47V/L88M/N227D/S58T/T264A/V32A/Y273L/Y87F) (P00441+P0A3G2 fused with the stated changes): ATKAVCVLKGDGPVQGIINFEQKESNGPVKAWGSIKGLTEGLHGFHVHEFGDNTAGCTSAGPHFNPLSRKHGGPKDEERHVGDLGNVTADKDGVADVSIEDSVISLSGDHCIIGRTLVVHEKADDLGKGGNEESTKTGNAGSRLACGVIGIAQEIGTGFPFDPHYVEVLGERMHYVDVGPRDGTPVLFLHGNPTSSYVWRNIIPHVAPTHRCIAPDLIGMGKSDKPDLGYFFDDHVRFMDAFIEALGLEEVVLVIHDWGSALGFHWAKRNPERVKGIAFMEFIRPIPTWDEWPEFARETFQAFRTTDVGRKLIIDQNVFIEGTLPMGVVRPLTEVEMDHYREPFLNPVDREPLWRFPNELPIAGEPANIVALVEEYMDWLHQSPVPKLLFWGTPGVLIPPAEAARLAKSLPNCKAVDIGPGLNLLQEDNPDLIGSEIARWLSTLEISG
# Description: as §3, §4
# [6] = 4 with misfolded oligomers, 5 with insoluble aggregates of SOD1-A4V-Halo
smiles,measurement,setting,value
"CN(C)c1ccc(/C=C2N=C(/C=C/c3ccc(N(CCO)CCO)cc3)N(CC(=O)N[C@H]3CC[C@H](C(=O)NCCOCCOCCCCCCCl)CC3)C\2=O)cc1 [Compound 4, (1r,4r)-4-(2-((Z)-2-((E)-4-(bis(2-hydroxyethyl)amino)styryl)-4-(4-(dimethylamino)benzylidene)-5-oxo-4,5-dihydro-1H-imidazol-1-yl)acetamido)-N-(2-(2-((6-chlorohexyl)oxy)ethoxy)ethyl)cyclohexanecarboxamide]",fluorescence of perinuclear SOD1 A4V-Halo granules,SOD1-A4V-Halo [1],only exhibited red fluorescence from 4
same,fluorescence of Htt-110Q-Halo inclusions,Htt-110Q-Halo,exhibit fluorescence from both 4 and 5
same,fluorescent properties of 4 compared with 3,[2],identical to 3
same,B (brightness),[2]; calculated using B = Φϵ,"8,734 M^−1cm^−1"
same,Φ (quantum yield),[2]; in glycerol,0.230
same,λem,[2]; in glycerol,628 nm
same,λex,[2]; in glycerol,530 nm
same,λabs,[2]; maximum absorbance measured in glycerol,534 nm
same,ϵ (extinction coefficient),[2]; measured in glycerol,"36,241 M^−1cm^−1"
same,Em,SOD1-A4V-Halo [3]; [6],600 nm
same,Ex,SOD1-A4V-Halo [3]; [6],530 nm
same,kinetics of fluorescence increase versus turbidity,SOD1-A4V-Halo [3]; SOD1-A4V-Halo conjugate,faster than that of turbidity
same,fluorescence of the Halo-4 conjugate control under heat,SOD1(V31A)-Halo [4],remained non-fluorescent under all heat conditions
same,fluorescence of the SOD1(V31A)-Halo-4 conjugate under heat,SOD1(V31A)-Halo [5],increased in the absence of insoluble protein aggregates
same,kinetics of fluorescence increase versus turbidity,SOD1(V31A)-Halo [5]; 54.5° C.,much faster than the kinetics of turbidity
same,kinetics of fluorescence versus protein misfolding,SOD1(V31A)-Halo [5]; 54.5° C.,coincided with the kinetics of protein misfolding
